In this assay the target is TintPBP4 (pheromone binding protein 4). The assay can be described thus: fluorescence competitive binding assay, displacement of 1-NPN. Details: species or system Tryporyza intacta.

pKi: −log10 of the molar value.

The pKi is −log10 of the Ki, conventionally taken in molar units. Higher therefore signals a low Ki. `CCCC/C=C/CCCCCCCCCC=O` [compound 1, E11-16: Ald] had a pKi of 5.53. Molecule `CCCC/C=C\CCCCCCCCCC=O` [compound 2, Z11-16: Ald] gave a pKi of 5.60.

Values taken from PMC7096405, “Field evaluation of sex pheromones and binding specificity of pheromone binding protein 4 in Tryporyza intacta (Lepidoptera: Crambidae)” (Scientific Reports, 2020).
